# Assay results as given in patent publication US5620864A, “Acceptor for fucosyl transferase” (Health Research, Inc., priority 1992, dated 1997).
# Values joined by “and” are separate entries in the source; they are usually repeats but may differ in a detail not shown here. Equal values may be shown once.
# How the values were obtained:
# [1] = system: α1,3-L-fucosyltransferase of the soluble fraction of human ovarian tumor; experiment: Assay of α1,3-fucosyltransferase with synthetic acceptors, partially purified enzyme of ovarian tumor soluble fraction; assay type: biochemical; conditions: for [14C] Fucose Incorporated (CPM): acceptor 3.0 mM, 37° C. 18 h
# Protocol: (§1) An incubation mixture contained 50 mM HEPES-NaOH, pH 7.5, 5 mM MnC12, 7 mM ATP, 3 mM NaN3, the acceptor 0.3 mM (for serum enzyme) or 3.0 mM (for tumor enzyme), 0.125 μCi of GDP-[U-^14 C] Fuc (Sp. Act. 216 mCi/mmol) and enzyme in a total volume of 0.10 ml; the control incubation mixture had everything except the acceptor. At the end of incubation at 37° C. for 18 h, the mixture was diluted with 1 ml water and passed through Dowex-1-C1 column (1 ml in a Pasteur pipet). The column was washed twice with 1 ml water; the breakthrough and wash, which contained the [^14 C] fucosylated neutral acceptor, were collected together in a scintillation vial and counted for radioactivity using the scintillation coctail 3a70 (Research Products International, Mount Prospects, Ill.) and Beckman LS9000. The Dowex column was then eluted successively with 3 ml each of 0.1M and 0.2M NaCl; these eluates which contained the [^14 C] fucosylated sulfated acceptors, were counted for radioactivity as before. Corrections were made by subtracting the radioactivity in the water and NaCl eluates of the control incubation mixture from the corresponding test fractions. The duplicate runs of samples gave almost identical values, the difference being <5%.
# As shown in the scheme set forth in FIG. 2, the α-L-fucosidase-free extract of the tissue (40 g), after concentration by 80% (NH4)2 SO4 precipitation was fractionated on bovine IgG glycopep-Sepharose in batches of 25 ml. After washing the column with the equilibration buffer, the bound enzyme was eluted with 1 M NaCl in the same buffer. The protein positive fractions were pooled and processed as shown in the scheme 2.0 ml of the above preparation was loaded on a Sephacryl S-200 column (Superfine:2.6 cm×88.0 cm) equilibrated at 4° C. with 50 mM Tris-HC1, pH 7.0 containing 0.15M NaCl and 0.1% Triton X-100 and eluted with the same buffer. Fractions of 3.0 ml were collected. The fucosyltransferase activity was located in the effluent fractions, by assaying first every 5th fraction and then obtaining the activity profile by assaying the alternate fractions in that range, using 2'-fucosyl LacNAc as the acceptor. […] Its elution position, which is slightly later than BSA, run separately on the same column, indicates its molecular weight as <67,000 daltons. […] The enzyme has been purified 66 fold over the soluble extract with a recovery of 6.2%. The enzyme at this stage lost its activity either kept frozen at -20° C. or left at 4° C. for more than a week. However, the enzyme at the end of the previous step was fairly stable for at least two months at 4° C. So this preparation of enzyme was used in acceptor ability comparison studies.
# When α1,3-fucosyltransferase activity of the partially purified enzyme preparation from the soluble portion of ovarian tumor was measured and compared with the activity of other acceptors, the following results were obtained. 2'-methyl LacNAc, LacNAc and Galβ1, 3GlcNAc were respectively 100.0%, 60.6% and 565.5% active, indicating the presence of both α1,3 and α1,4 fucosyltransferase activities in this preparation.
# [2] = target: T1, serum α1,3-L-fucosyltransferase (Homo sapiens, UniProt P51993); experiment: Assay of α1,3-fucosyltransferase with various synthetic acceptors, ovarian cancer sera as enzyme source; assay type: biochemical; conditions: for [14C] Fucose Incorporated (CPM): acceptor 0.3 mM, 37° C. 18 h
# T1 construct: Sera were collected from healthy females and ovarian cancer patients; from tissue; host or cells: blood serum of ovarian cancer patients and healthy females
# T1 sequence (P51993 35-359 limits assumed): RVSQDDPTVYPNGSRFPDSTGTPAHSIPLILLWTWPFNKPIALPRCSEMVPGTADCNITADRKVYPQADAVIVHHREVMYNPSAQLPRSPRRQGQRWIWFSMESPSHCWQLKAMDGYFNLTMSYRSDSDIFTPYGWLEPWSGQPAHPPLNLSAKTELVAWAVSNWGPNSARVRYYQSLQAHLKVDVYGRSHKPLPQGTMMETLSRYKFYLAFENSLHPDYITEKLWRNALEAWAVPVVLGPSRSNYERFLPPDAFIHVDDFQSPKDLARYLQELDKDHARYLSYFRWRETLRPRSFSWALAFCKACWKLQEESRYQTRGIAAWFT
# Protocol: Sera were collected from healthy females and ovarian cancer patients admitted to Roswell Park Cancer Institute in Buffalo, N.Y., USA. Ovarian tumor tissues were obtained during surgical procedures from patients with ovarian cancer. Both sera and tissues were stored frozen at -70° C. until use.
# as §1
# The activity of serum α1,3-fucosyltransferase was measured with the specific substrate 2'-methyl LacNAc and compared with the ability of several other synthetic substrates to act as an acceptor of fucose.
# When the structure of the acceptor 2'-methyl LacNAc was modified by replacing the methyl group with sulfate group in C-2', 3', 6' or 6 position and tested their ability to act as the acceptor of fucose, the following novel findings emerged. […] The β-benzyl glycoside of 3' sulfo LacNAc was quite active (168.4%) but less than the parent compound.
# [3] = system: α1,3-L-fucosyltransferase of the particulate fraction of ovarian tumor; experiment: Assay of α1,3-fucosyltransferase with synthetic acceptors, ovarian tumor particulate fraction; assay type: biochemical, human; conditions: for [14C] Fucose Incorporated (CPM): acceptor 3.0 mM, 37° C. 18 h
# Protocol: FIG. 2 The scheme for the preparation of the particulate and soluble fractions of human ovarian tumor.
# as §1
# This finding is quite different from what we found with the soluble fraction, where α1,4-fucosyltransferase activity seems to be greater than α1,3-fucosyltransferase activity. […] The different nature of the above enzymes was made further clear, when sulfated derivatives of LacNAc was tested as acceptors.
# [4] = 2'-methyl LacNAc = 100, listed as 3'-Sulfo LacNAc
# [5] = 2'-methyl LacNAc = 100, listed as 3'-sulfo LacNAc
Relative Percent ([1]; 2'-methyl LacNAc = 100) [%],[14C] Fucose Incorporated (CPM) [1] [CPM],[14C] Fucose Incorporated (CPM) [2] [CPM],Relative Percent ([3]; 2'-methyl LacNAc = 100) [%],[14C] Fucose Incorporated (CPM) [3] [CPM],"Relative Percent [1, 4] [%]","Relative Percent [1, 5]",Relative Percent ([2]; 2'-methyl LacNAc = 100) [%],"Relative Percent [2, 4] [%]","Relative Percent [2, 5] [%]","Relative Percent ([2]; 2'-methyl LacNAc = 100, listed as 3'-sulfo-LacNAc) [%]","Relative Percent [3, 4] [%]","Relative Percent [3, 5] [%]",SMILES
100,7392,1730,100,48252,–,–,–,–,–,–,–,–,CO[C@H]1[C@H](O[C@H]2[C@H](O)[C@@H](NC(C)=O)C(O)O[C@@H]2CO)O[C@H](CO)[C@H](O)[C@@H]1O (stereo partly drawn) [2'-methyl LacNAc]
447.1,33049,5894,39.0,18793,447,447% and 447.1%,340.8,340.8,340.8,340,39,39.0,"CC(=O)N[C@H]1C(O)O[C@H](CO)[C@@H](O[C@@H]2O[C@H](CO)[C@H](O)[C@H](OS(=O)(=O)O)[C@H]2O)[C@@H]1O (stereo partly drawn) [3'-Sulfo-LacNAc, SODIUM β-D-GALACTOPYRANOSYL 3-SULFATE-(1→4)-2-ACETAMIDO-2-DEOXY-D-GLUCOPYRANOSE]"
